Here are results for 2 molecules from patent US9260710B2, “Photocleavable linker” (City of Hope, priority 2012, dated 2016).

Test [1] relates to GFP IC trap transfected Cos1 cells. Kind of test: Organelle dispersion and microtubule array in cells expressing the IC trap. It counts as cell-based. As to the method:
FIGS. 13A-13B. FIGS. 13A-13B depict that induction of IC traps leads to Endosome (FIG. 13A) and Golgi apparatus (FIG. 13B) dispersion. Cos1 cells were transfected with the GFP IC trap (upper rights panels of FIGS. 13A and 13B) for 24 h and then treated with AP20187 for 1 h. The cells were stained with DAPI for nuclei (upper left panels of FIGS. 13 A and 13B) and EEA1 for endosomes (FIG. 13A, lower left panel)) or GM130 marker for Golgi bodies (FIG. 13B, lower left panel). Note the endosomes and Golgi apparatus are dispersed (marked “d”) within 10 min and 1 h, respectively. Cells not containing the IC trap all show compact endosomes and Golgi bodies (marked “c”). Scale bar is 5 μm.
As a test for effects on cytoplasmic dynein functions that are distinct from vesicular transport, we monitored mitotic behavior in cells expressing either the LC8- or TcTex1-traps. We observed little effect on either mitotic index or the fraction of mitotic cells at discrete mitotic stages with either trap (data not shown). […] Finally, similar studies were carried out using the IC trap. As before, we observed little or no change in the dispersion of endosomes and Golgi apparatus before AP20187 treatment. Induction of dimerization through the addition of AP20187 (1 μM) produced immediate changes in both organelles. After 4 h, 81+4% of cells contained dispersed endosomes and 68+3% of cells contained dispersed Golgi. […] The precise reason for this difference is not clear; however, currently, we attribute this to a change in the cytoskeleton, but this must still be verified. We are also in the process of measuring the effect of sequestering the dynein IC on mitotic behavior.
Microtubule architecture. Known methods of inhibiting cytoplasmic dynein, such as expression of dynactin polypeptides or RNAi against the dynein regulatory factors NudEL and ZW10, cause disorganization of the radial microtubule (MT) network in cultured mammalian cells 52-54. […] This is consistent with previous studies where overexpressing a dimeric form of the IC trap (e.g., CC1 of p150glued) also disrupts of the MT array).

Test [2] has as its system EGFP-FKBP-LC8TRAP transfected COS1 cells. The test is described as follows: Reversibility of endosome dispersion after UV induction. Format: cell-based. The conditions noted are these: for Percentage of endosomes dispersion (recovery): UV 10 min. As to the method:
Cell Culture. COS1 cells were cultured in DMEM (CELLGRO®) supplemented with 10% fetal bovine/calf serum (Omega Scientific). Transfection was performed in 80-90% confluent 24-h cultures of COS1 cells using LIPOFECTAMINE™ 2000 (Invitrogen) and OPTI-MEM™ media (GIBCO®) according to the manufacturer's recommendations. Various concentrations (0 nM to 1000 nM) of AP (Ariad Pharmaceuticals Inc.) and PhAP (as described herein) were added to each experimental wells 24 hr. post transfection and incubated for different periods of time before analyzing the cells. For reversibility of endosome dispersion studies, 500 nM of AP/PhAP were used. In each case, the cells were washed well with PBS and supplemented with fresh media before inducing with UV light (10 mins., 4 W, 350 nm) and allowed to recover for various time period at 37° C., before analysis.
Immunostaining and Microscopy. For immunostaining, transiently transfected COS1 cells were fixed with 3.7% formaldehyde at room temperature for 10 min, and subsequent immunostaining was performed as described previously^[2]. Briefly, COS 1 cells grown on 25-mm coverslips were washed 3× with PBS, treated with 3.7% formaldehyde (Sigma) in PBS for fixation, and permeabilized in 0.5% Triton X-100 (Sigma) in PBS at room temperature for 10 min. Cells were then incubated with blocking buffer containing 4% skimmed milk (fat free) and 0.5% Triton X-100 in PBS. Anti-EEA1 monoclonal antibody was added to label early endosome marker protein at a dilution of 1:100 in the same buffer for 30 min at RT, and the coverslips were washed and incubated with rhodamine-conjugated donkey anti-mouse secondary antibody (1:100). After washing, the coverslips were mounted on slides to visualize the trapping effects. Samples were viewed using an Olympus IX81 automated inverted microscope equipped with water immersion 60× objective. The level of dispersion was quantified by counting 100 cells per coverslip. Each experiment was performed in triplicate. Images were obtained using a Spot RT Slider high-resolution cooled CCD camera equipped to IX81 microscope and Image-Pro software. Images were cropped and processed using Adobe Photoshop 7.0 (Adobe Systems).
UV induction. For UV-induction and recovery of endosome studies, cells were washed with PBS and fresh media were added after drug treatment. The washed cells were then treated with a hand held UV-lamp (365 nm/4 watt) for 10 mins. The cells were then left to recover at 37° C. for varying period of time before staining and analysis.
Next, we characterized the reversibility of endosome dispersion in COS1 cells UV-induced cleavage of PhAP. In these experiments, transiently transfected cells were incubated with PhAP (500 nM) or AP for times ranging from 0-2 h, after which cells were washed rapidly, replenished with fresh media, and then exposed to UV light (10 min, 4 W, 350 nm). The cells were then fixed at 0, 1, 2, 4, and 8 h post UV radiation and the endosomes imaged using fluorescence microscopy at 60× magnification. We observed a gradual recovery of endosomes to the perinuclear region during the first 4 h after UV exposure (44.1±2.3%), with a slight increase in dispersion after 8 h (48.9±3.9%), for cells treated with PhAP (FIG. 3A).

Where [3] appears, read: Cos1 cells, after AP20187 addition.
[4] abbreviates: 30 mins. treatment (500 nM), recovery 0 h.
The mark [5] stands for this setting: 30 mins. treatment (500 nM), recovery 1 h.
[6] abbreviates: 30 mins. treatment (500 nM), recovery 2 h.
Setting [7] is: 30 mins. treatment (500 nM), recovery 4 h.
The mark [8] stands for this setting: 30 mins. treatment (500 nM), recovery 8 h.
[9] abbreviates: 1 hr. treatment (500 nM), recovery 0 h.
[10] abbreviates: 1 hr. treatment (500 nM), recovery 1 h.
Where [11] appears, read: 1 hr. treatment (500 nM), recovery 2 h.
[12] abbreviates: 1 hr. treatment (500 nM), recovery 4 h.
The mark [13] stands for this setting: 1 hr. treatment (500 nM), recovery 8 h.
Setting [14] is: 2 hr. treatment (500 nM), recovery 0 h.
Where [15] appears, read: 2 hr. treatment (500 nM), recovery 1 h.
Where [16] appears, read: 2 hr. treatment (500 nM), recovery 2 h.
Setting [17] is: 2 hr. treatment (500 nM), recovery 4 h.
Setting [18] is: 2 hr. treatment (500 nM), recovery 8 h.

Turning to `CCC(C(=O)N1CCCCC1C(=O)OC(CCc1ccc(OC)c(OC)c1)c1cccc(OCC(=O)NCC(CNC(=O)COc2cccc(C(CCc3ccc(OC)c(OC)c3)OC(=O)C3CCCCN3C(=O)C(CC)c3cc(OC)c(OC)c(OC)c3)c2)CN(C)C)c1)c1cc(OC)c(OC)c(OC)c1` (stereo not shown) [AP, AP20187], in test [1] (AP20187 1 μM, after 4 h), the “cells containing dispersed Golgi” value is 68+3%. Further, the “cells containing dispersed endosomes” value in test [1] (AP20187 1 μM, after 4 h) is listed as 81+4%. The “microtubule (MT) radial array” value in test [1] (AP20187-induced dimerization of the IC trap) was “significantly disrupted”. For the same molecule, the “time within which Golgi apparatus is dispersed” value in test [1] (setting [3]) is on record as not above 1 h. Also, the “time within which endosomes are dispersed” value in test [1] (setting [3]) is recorded as not above 10 min. Moreover, in test [2] (0-8 h post UV, with or without UV exposure), the “endosome dispersion after UV exposure, all time points” value is listed as “remained dispersed at all time points evaluated”. Further, the “Percentage of endosomes dispersion (recovery)” value (from here on “Percentage”) was determined as 51.8 ± 4.4% in test [2] (setting [4]); 64.7 ± 2.0% in test [2] (setting [5]); 68.3 ± 3.7% in test [2] (setting [6]); 69.8 ± 4.3% in test [2] (setting [7]); 67.9 ± 1.9% in test [2] (setting [8]); 58.0 ± 4.3% in test [2] (setting [9]). For the same molecule, the “Percentage” value in test [2] (setting [10]) was 71.2 ± 2.5%; in test [2] (setting [11]), 69.7 ± 3.6%; in test [2] (setting [12]), 70.4 ± 3.1%; in test [2] (setting [13]) it was 70.8 ± 1.9%; in test [2] (setting [14]) it was 69.1 ± 3.2%; in test [2] (setting [15]) it was 68.9 ± 3.2%. Besides, the “Percentage” value in test [2] (setting [16]) was determined as 70.7 ± 4.0%; in test [2] (setting [17]), 69.5 ± 1.9%; in test [2] (setting [18]) it was 70.3 ± 3.3%. For the same molecule, in test [2] (30 minutes or 1 hr treatment followed by UV exposure), the “saturation point of endosome dispersion” value was approximately 70%.
`CC[C@H](C(=O)N1CCCC[C@H]1C(=O)O[C@H](CCc1ccc(OC)c(OC)c1)c1cccc(OCC(=O)OC(C)c2ccc(C(C)OC(=O)COc3cccc([C@@H](CCc4ccc(OC)c(OC)c4)OC(=O)[C@@H]4CCCCN4C(=O)[C@@H](CC)c4cc(OC)c(OC)c(OC)c4)c3)c([N+](=O)[O-])c2)c1)c1cc(OC)c(OC)c(OC)c1` (stereo partly shown) [PhAP]: the “Percentage” value stood at 53.2±2.4% in test [2] (setting [4]); 53.7 ± 4.0% in test [2] (setting [5]); 50.8 ± 2.3% in test [2] (setting [6]); 48.0 ± 0.5% in test [2] (setting [7]); 49.3 ± 6.7% in test [2] (setting [8]); 57.8±8.0% in test [2] (setting [9]). For the same molecule, the “Percentage” value in test [2] (setting [10]) is listed as 56.4 ± 1.7%; in test [2] (setting [11]) it was 55.7 ± 8.8%; in test [2] (setting [12]) it was 46.7 ± 0.6%; in test [2] (setting [13]) it was 48.1 ± 2.0%; in test [2] (setting [14]), 69.5 ± 2.4%; in test [2] (setting [15]), 66.3 ± 3.2%. Besides, the figures for the “Percentage” value in test [2] (setting [16]), in test [2] (setting [17]) and in test [2] (setting [18]) were 57.6 ± 2.6%, 44.1±2.3% and 48.9±3.9%, respectively.
